Measurements taken from patent US7192768B2, “Synchronization of the cytoplasmatic and the nuclear maturation of oocytes in vitro” (Novo Nordisk A/S, priority 2001, dated 2007).
Marks after values point to notes of the source that are not given here.

Key:
[1] = system: cumulus-enclosed oocytes (CEO); experiment: FSH induced resumption of meiosis and cumulus expansion of hypoxanthine arrested mouse oocytes cultured in vitro (22-hydroxycholesterol); type: cell-based; design: Cumulus expansion: key to the marks not given beside the values
Procedure: Immature female mice (B6D2-F1 strain C57B1/2J) were kept under controlled light and temperature conditions with free access to food and water. Ovarian stimulation was performed when the mice weighed 10–16 grams and consisted of an intra-peritoneal injection of Gonadoplex (Leo, Copenhagen, Denmark) containing 7.5 U/mouse. The animals were killed by cervical dislocation 44–48 h later. The media used for the culture of oocytes consisted of α-Minimum Essential Medium (α-MEM), with Earles Balanced Salt Solution (EBSS), containing 4 mM hypoxanthine, 3 mg/ml bovine serum albumin, 0.23 mM pyruvate, 2 mM glutamine (all Sigma, U.S.A) and 100 IU/ml penicillin, 100 ug/ml Streptomycin. This medium was termed “HX-medium”. A media similar to the above but without HX are termed “maturation-medium”. Oocytes were isolated in HX-medium under a stereo microscope by manual rupture of follicles using a pair of 5.5-gauge needles. Spherical oocytes with intact cumulus cells connection and displaying germinal vesicle were categorized as cumulus-enclosed oocytes (CEO). Oocytes were rinsed 3 times in fresh HX-medium. Prior to each experimental set-up, all oocytes from 10–15 mice were pooled. Only oocytes with a germinal vesicle present were used and distributed in separate wells of a 4-well dish (Nuncoln, Denmark) containing 1 ml of HX-medium. Each well contained 20–30 oocytes and was cultured at 37° C. in 100% humidity in air with 5% CO2. Each experiment was repeated at least 4 times. At the end of the culture period (i.e 24 h), oocytes with GV or GVBD, or polar body (PB) were counted using an inverted microscope with differential interference contrast equipment (Leica, German). […]
Graduation of cumulus expansion: 0: No expansion, compact cumulus layer surrounding the oocyte; +: A slight cumulus expansion, the most peripheral cumulus cell looks a little fluffy; ++: good expansion of cumulus cell without a spherical cloud like expansion; +++: full cumulus expansion with a fluffy cloud like expansion with extended distance between the somatic cells.

[2] = system: cultured mouse oocytes; details: WO 98/28323; cited from earlier work
[3] = system: cumulus enclosed oocytes; details: AY added to cumulus enclosed oocytes; cited from earlier work
[4] = system: cumulus enclosed mouse oocytes; experiment: FSH induced resumption of meiosis of mouse oocytes cultured in vitro (dbc-AMP control medium); type: cell-based; details: for % GVBD / % PB (PB/GVBD): 22-24 h
Procedure: Immature female mice (B6D2-F1 strain C57B1/2J) were kept under controlled light and temperature conditions with free access to food and water. Ovarian stimulation was performed when the mice weighed 10–16 grams and consisted of an intra-peritoneal injection of Gonadoplex (Leo, Copenhagen, Denmark) containing 7.5 U/mouse. The animals were killed by cervical dislocation 44–48 h later. The media used for the culture of oocytes consisted of α-Minimum Essential Medium (α-MEM), with Earles Balanced Salt Solution (EBSS), 200 μM dibuturyl-cyclic-adenosine-mono-phosphate (dbc-AMP), 3 mg/ml Bovine Serum Albumin, 0,23 mM pyruvate, 2 mM glutamine, 100 IU/ml penicillin and 100 mg/ml streptomycin (i.e. control medium). The ovaries were recovered and oocytes isolated from the ovaries by puncturing individual follicles using a 25 gauge needle. The oocytes were washed 3 times in control medium before the start of each experiment. Cumulus enclosed oocytes were cultured separately in 4-well dishes (Nuncleon, Roskilde, Denmark), 0.4 ml medium in each well containing control medium or medium supplemented with ketoconazole in a 100% humidified atmosphere of 5% CO2 with 95% air at 37° C. The culture period was 22–24 h. By the end of the culture period, germinal vesicle breakdown (GVBD) was scored by examining the oocyte in an inverted microscope. The percentage of oocytes with GVBD per total number of oocytes (% GVBD) was calculated.

[5] = system: cumulus-enclosed oocytes (CEO); experiment: FSH induced resumption of meiosis of hypoxanthine arrested mouse oocytes cultured in vitro (ketoconazole); type: cell-based; details: HX-medium; for % GVBD / % PB (PB/GVBD): 24 h
Procedure: Oocytes were obtained from immature mice (Kunming white mouse) weighing 14–16 g that were kept under controlled light and temperature conditions with free access to water. The mice received an intra peritoneal injection of 0.1 ml pregnant mare's serum gonadotrophin (PMSG, Sigma, New York, U.S.A) containing 10 IU PMSG. Forty-six hours later, the animals were killed by cervical dislocation. The ovaries were dissected out and placed in M199 culture medium (GIBCO, U.S.A) containing 4 mM hypoxanthine, 3 mg/ml bovine serum albumin, 0.23 mM pyruvate, 2 mM glutamine (all Sigma, U.S.A) and 100 IU/ml penicillin, 100 ug/ml Streptomycin. This medium was termed “HX-medium”. A media similar to the above but without HX are termed “maturation-medium”. Oocytes were isolated in HX-medium under a stereo microscope by manual rupture of follicles using a pair of 5.5-gauge needles. Spherical oocytes with intact cumulus cells connection and displaying germinal vesicle were categorized as cumulus-enclosed oocytes (CEO). Oocytes were rinsed 3 times in fresh HX-medium. Prior to each experimental set-up, all oocytes from 10–15 mice were pooled. Only oocytes with a germinal vesicle present were used and distributed in separate wells of a 4-well dish (Nuncoln, Denmark) containing 1 ml of HX-medium. Each well contained 20–30 oocytes and was cultured at 37° C. in 1000% humidity in air with 5% CO2. Each experiment was repeated at least 4 times. At the end of the culture period (i.e 24 h), oocytes with GV or GVBD, or polar body (PB) were counted using an inverted microscope with differential interference contrast equipment (Leica, German). The percentage of oocytes with GVBD per total number of oocytes (% GVBD) and the percentage of oocytes with PB formation per total number of oocytes (% PB) were calculated.

[6] = system: human oocytes; details: EGF 2 ng/ml, 30 h culture; cited from earlier work
[7] = 22-OH-cholesterole 1 μg/ml + FSH 75 IU/L, with fetal calf serum
[8] = 22-OH-cholesterole 1 μg/ml + FSH 75 IU/L, without fetal calf serum
[9] = 22-OH-cholesterole 5 μg/ml + FSH 75 IU/L, without fetal calf serum
[10] = 22-OH-cholesterole 10 μg/ml + FSH 75 IU/L, with fetal calf serum
[11] = 22-OH-cholesterole 10 μg/ml + FSH 75 IU/L, without fetal calf serum
[12] = 22-OH-cholesterole 25 μg/ml + FSH 75 IU/L, with fetal calf serum
[13] = 22-OH-cholesterole 25 μg/ml + FSH 75 IU/L, without fetal calf serum
[14] = ketoconazole 5 μM in medium with FSH 75 IU/L
[15] = ketoconazole 10 μM in medium with FSH 75 IU/L
[16] = ketoconazole 20 μM in medium with FSH 75 IU/L
[17] = ketoconazole 0.1 μM + FSH 50 IU/L
[18] = ketoconazole 1 μM + FSH 50 IU/L
[19] = ketoconazole 10 μM + FSH 50 IU/L
[20] = ketoconazole 100 μM + FSH 50 IU/L
[21] = ketoconazole 1000 μM + FSH 50 IU/L

CC(C)CCC(O)[C@@H](C)[C@H]1CC[C@H]2[C@@H]3CC=C4C[C@@H](O)CC[C@]4(C)[C@H]3CC[C@]12C (some centres unmarked) [22-OH-cholesterole, 22-hydroxycholesterol]
% GVBD [1, 7]: 41% | % PB (PB/GVBD) [1, 7]: 29% | Cumulus expansion [1, 7]: +++ | % GVBD [1, 8]: 62% | % PB (PB/GVBD) [1, 8]: 25* % | % GVBD ([1]; 22-OH-cholesterole 3 μg/ml alone (no FSH), without fetal calf serum, HX-medium, 24 h): 26% | % GVBD [1, 9]: 72% | % PB (PB/GVBD) [1, 9]: 26* % | % GVBD [1, 10]: 39* % | % PB (PB/GVBD) [1, 10]: 14* % | % GVBD [1, 11]: 31* % | % PB (PB/GVBD) [1, 11]: 11* % | % GVBD [1, 12]: 19* % | % PB (PB/GVBD) [1, 12]: 28* % | % GVBD [1, 13]: 17* % | % PB (PB/GVBD) [1, 13]: 0* % | cumulus expansion with 22-hydroxycholesterol and FSH compared with FSH alone (in words) ([1]; tables 3 and 4, FSH 75 IU/L): occurs to similar degree | effect on FSH induced resumption of meiosis (in words) ([1]; tables 3 and 4, FSH 75 IU/L): prevents oocytes from resuming meiosis in the presence of FSH | effect on FF-MAS induced resumption of meiosis (in words) [2]: can prevent a FF-MAS induced resumption of meiosis

AY-9944-A-7
accumulation of FF-MAS (in words) [3]: causes accumulation of FF-MAS | resumption of meiosis (in words) [3]: dose-dependant induction of resumption of meiosis

CC(=O)N1CCN(c2ccc(OCC3COC(Cn4ccnc4)(c4ccc(Cl)cc4Cl)O3)cc2)CC1 (centres unmarked) [Ketoconazole, ketoconazole]
% GVBD [4, 14]: 7% | % PB (PB/GVBD) [4, 14]: 57% | % GVBD [4, 15]: 7% | % PB (PB/GVBD) [4, 15]: 8% | % GVBD [4, 16]: 3% | % PB (PB/GVBD) [4, 16]: 0% | effect on FSH induced resumption of meiosis (in words) ([4]; ketoconazole 5-20 μM with FSH 75 IU/L): able to prevent oocytes resuming meiosis | % GVBD [5, 17]: 58% | % PB (PB/GVBD) [5, 17]: 33% | % GVBD [5, 18]: 48* % | % PB (PB/GVBD) [5, 18]: 30% | % GVBD [5, 19]: 35* % | % PB (PB/GVBD) [5, 19]: 25% | % GVBD [5, 20]: 20* % | % PB (PB/GVBD) [5, 20]: 19* % | % GVBD [5, 21]: 21* % | % PB (PB/GVBD) [5, 21]: 17* % | effect on FSH induced resumption of meiosis (in words) ([5]; ketoconazole with FSH 50 IU/L): prevents oocytes from resuming meiosis | effect on PB formation (in words) ([5]; ketoconazole with FSH 50 IU/L): dose-dependant inhibition of PB formation

EGF: epidermal growth factor (NSDSECPLSHDGYCLHDGVCMYIEALDKYACNCVVGYIGERCQYRDLKWWELR; UniProt P01133 971-1023, looked up)
number of germinal vesicle oocytes reaching metaphase II (in words) [6]: enhanced
